According to ChEMBL document CHEMBL4602694, “Suppression of Drug-Resistant Non-Small-Cell Lung Cancer with Inhibitors Targeting Minichromosomal Maintenance Protein” (J Med Chem, 2020):
pIC50: −log10 of the molar value. Active and inactive are the calls of the source. No cut-off for these calls is given here.

What was measured:
[1] = molecular target: DNA replication licensing factor MCM7 (Homo sapiens) (UniProt P33993); experiment: Induction of ubiquitination of MCM7 in human NCI-H1975 cells in presence of MG132 incubated for 48 hrs followed by MG132 addition and measured after 12 hrs by immunoblot analysis (reference value: 1.6); format: cell-based
[2] = molecular target: T1, DNA replication licensing factor MCM6 (Homo sapiens) (UniProt Q14566); experiment: Induction of ubiquitination of MCM6 in human NCI-H1975 cells incubated for 72 hrs by immunoblot analysis (reference value: 1); format: cell-based
T1 sequence (whole entry): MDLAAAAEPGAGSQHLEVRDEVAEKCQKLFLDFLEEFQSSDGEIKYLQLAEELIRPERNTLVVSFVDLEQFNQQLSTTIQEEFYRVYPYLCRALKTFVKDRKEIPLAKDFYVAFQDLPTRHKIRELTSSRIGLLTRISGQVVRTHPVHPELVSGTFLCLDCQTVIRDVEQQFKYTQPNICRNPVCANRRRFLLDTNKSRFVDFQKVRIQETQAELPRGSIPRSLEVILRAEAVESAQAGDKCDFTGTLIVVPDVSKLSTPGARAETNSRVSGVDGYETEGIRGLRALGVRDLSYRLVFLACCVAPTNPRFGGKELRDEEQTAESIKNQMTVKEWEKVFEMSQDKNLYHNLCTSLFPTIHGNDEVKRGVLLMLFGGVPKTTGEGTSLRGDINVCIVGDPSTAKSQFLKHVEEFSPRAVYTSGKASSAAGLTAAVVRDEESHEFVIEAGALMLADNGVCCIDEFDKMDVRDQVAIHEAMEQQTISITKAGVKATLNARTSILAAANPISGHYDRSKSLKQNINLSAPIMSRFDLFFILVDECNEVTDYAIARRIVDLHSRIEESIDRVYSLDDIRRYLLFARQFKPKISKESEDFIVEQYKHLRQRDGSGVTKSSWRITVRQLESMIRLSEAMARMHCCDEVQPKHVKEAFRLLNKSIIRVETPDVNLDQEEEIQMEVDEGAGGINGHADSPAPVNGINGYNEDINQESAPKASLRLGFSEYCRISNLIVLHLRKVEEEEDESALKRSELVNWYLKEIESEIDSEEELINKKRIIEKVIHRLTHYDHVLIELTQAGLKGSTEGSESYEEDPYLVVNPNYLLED

[3] = molecular target: DNA replication licensing factor MCM2 (Homo sapiens) (UniProt P49736); experiment: Binding affinity to MCM2 in human NCI-H1975 cells assessed as reduction in MCM2 level measured up to 9 hrs by immunoblot analysis; format: cell-based
NCI-H1975 [4] = experiment: Cell cycle arrest in human NCI-H1975 cells assessed as accumulation in S phase at 140 nM incubated for 72 hrs by propidium iodide base flow cytometry analysis (reference value: 2 %); format: functional
[5] = molecular target: DNA replication licensing factor MCM2 (Homo sapiens) (UniProt P49736); experiment: Induction of ubiquitination of FLAG-tagged MCM2 in human 293T cells incubated for 4 hrs by magnetic beads technique based immunoblot analysis; format: cell-based; details: HEK-293T
[6] = molecular target: DNA replication licensing factor MCM2 (Homo sapiens) (UniProt P49736); experiment: Induction of ubiquitination of MCM2 in human H3255 cells incubated for 24 hrs by immunoblot analysis; format: cell-based; details: NCI-H3255
[7] = molecular target: DNA replication licensing factor MCM2 (Homo sapiens) (UniProt P49736); experiment: Induction of ubiquitination of MCM2 in human NCI-H1975 cells in presence of MLN4924 incubated for 24 hrs followed by MLN4924 addition and measured after 6 hrs by immunoblot analysis; format: cell-based
[8] = molecular target: DNA replication licensing factor MCM7 (Homo sapiens) (UniProt P33993); experiment: Induction of ubiquitination of MCM7 in human NCI-H1975 cells incubated for 24 hrs by immunoblot analysis (reference value: 1); format: cell-based
[9] = Selectivity index, ratio of IC50 for human bronchial epithelial cells to IC50 for human NCI-H1975 cells; format: toxicity; details: human bronchial epithelial cells versus NCI-H1975 cells, read-out: Ratio IC50
NCI-H1975 [10] = experiment: Antiproliferative activity against human NCI-H1975 cells harboring FLAG-tagged MCM2 assessed as reduction in cell viability incubated for 72 hrs by SRB assay; format: functional, cell-based; details: NCI-H1975, 72 h
[11] = molecular target: DNA replication licensing factor MCM2 (Homo sapiens) (UniProt P49736); experiment: Induction of ubiquitination of MCM2 in human NCI-H1975 cells incubated for 48 hrs by immunoblot analysis (reference value: 1); format: cell-based
NCI-H1975 [12] = experiment: Antitumor activity against human NCI-H1975 cells xenografted in athymic nude BALB/c mouse assessed as tumor growth inhibition at 4 mg/kg, ip administered for 4 weeks relative to control; format: functional; details: 672 h, read-out: TGI
[13] = molecular target: T2, DNA replication licensing factor MCM5 (Homo sapiens) (UniProt P33992); experiment: Induction of ubiquitination of MCM5 in human NCI-H1975 cells incubated for 72 hrs by immunoblot analysis (reference value: 1); format: cell-based
T2 sequence (whole entry): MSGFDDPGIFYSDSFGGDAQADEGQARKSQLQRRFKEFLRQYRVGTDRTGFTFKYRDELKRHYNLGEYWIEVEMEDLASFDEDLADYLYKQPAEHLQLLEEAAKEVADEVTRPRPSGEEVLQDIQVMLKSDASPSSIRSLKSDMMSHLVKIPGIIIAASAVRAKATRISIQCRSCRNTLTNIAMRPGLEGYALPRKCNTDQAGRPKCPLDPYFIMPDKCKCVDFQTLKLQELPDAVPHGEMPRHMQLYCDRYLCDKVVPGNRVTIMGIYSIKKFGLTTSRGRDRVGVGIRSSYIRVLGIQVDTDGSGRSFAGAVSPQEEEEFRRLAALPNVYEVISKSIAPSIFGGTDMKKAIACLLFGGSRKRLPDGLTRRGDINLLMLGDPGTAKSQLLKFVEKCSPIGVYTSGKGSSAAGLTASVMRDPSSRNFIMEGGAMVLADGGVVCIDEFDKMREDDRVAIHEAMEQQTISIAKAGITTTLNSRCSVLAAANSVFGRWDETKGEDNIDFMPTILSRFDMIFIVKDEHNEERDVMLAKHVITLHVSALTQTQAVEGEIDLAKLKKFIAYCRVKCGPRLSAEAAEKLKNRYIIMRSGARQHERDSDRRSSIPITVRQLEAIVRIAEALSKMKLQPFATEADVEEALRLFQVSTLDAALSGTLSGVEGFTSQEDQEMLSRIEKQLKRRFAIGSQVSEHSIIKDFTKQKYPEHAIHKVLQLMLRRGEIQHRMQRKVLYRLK

[14] = molecular target: T1, DNA replication licensing factor MCM6 (Homo sapiens); experiment: Induction of ubiquitination of MCM6 in human PC9 cells incubated for 24 hrs by immunoblot analysis; format: cell-based; details: PC-9
[15] = molecular target: DNA replication licensing factor MCM2 (Homo sapiens) (UniProt P49736); experiment: Induction of ubiquitination of FLAG-tagged MCM2 in human NCI-H1975 cells incubated for 24 hrs by magnetic beads technique based immunoblot analysis; format: cell-based
[16] = molecular target: T2, DNA replication licensing factor MCM5 (Homo sapiens); experiment: Induction of ubiquitination of MCM5 in human NCI-H1975 cells incubated for 48 hrs by immunoblot analysis (reference value: 1); format: cell-based
[17] = molecular target: DNA replication licensing factor MCM7 (Homo sapiens) (UniProt P33993); experiment: Induction of ubiquitination of MCM7 in human NCI-H1975 cells incubated for 48 hrs by immunoblot analysis (reference value: 1); format: cell-based
NCI-H1975 [18] = experiment: Induction of apoptosis in human NCI-H1975 cells assessed as increase in cleaved caspase 8 level at 140 nM incubated upto 72 hrs by immunoblotting analysis; format: functional, cell-based
NCI-H1975 [19] = experiment: Antitumor activity against human NCI-H1975 cells xenografted in athymic nude BALB/c mouse assessed as tumor growth inhibition at 1 mg/kg, ip administered for 4 weeks relative to control; format: functional; details: 672 h, read-out: TGI

DNA replication licensing factor MCM2 (Homo sapiens), sequence (P49736 whole entry): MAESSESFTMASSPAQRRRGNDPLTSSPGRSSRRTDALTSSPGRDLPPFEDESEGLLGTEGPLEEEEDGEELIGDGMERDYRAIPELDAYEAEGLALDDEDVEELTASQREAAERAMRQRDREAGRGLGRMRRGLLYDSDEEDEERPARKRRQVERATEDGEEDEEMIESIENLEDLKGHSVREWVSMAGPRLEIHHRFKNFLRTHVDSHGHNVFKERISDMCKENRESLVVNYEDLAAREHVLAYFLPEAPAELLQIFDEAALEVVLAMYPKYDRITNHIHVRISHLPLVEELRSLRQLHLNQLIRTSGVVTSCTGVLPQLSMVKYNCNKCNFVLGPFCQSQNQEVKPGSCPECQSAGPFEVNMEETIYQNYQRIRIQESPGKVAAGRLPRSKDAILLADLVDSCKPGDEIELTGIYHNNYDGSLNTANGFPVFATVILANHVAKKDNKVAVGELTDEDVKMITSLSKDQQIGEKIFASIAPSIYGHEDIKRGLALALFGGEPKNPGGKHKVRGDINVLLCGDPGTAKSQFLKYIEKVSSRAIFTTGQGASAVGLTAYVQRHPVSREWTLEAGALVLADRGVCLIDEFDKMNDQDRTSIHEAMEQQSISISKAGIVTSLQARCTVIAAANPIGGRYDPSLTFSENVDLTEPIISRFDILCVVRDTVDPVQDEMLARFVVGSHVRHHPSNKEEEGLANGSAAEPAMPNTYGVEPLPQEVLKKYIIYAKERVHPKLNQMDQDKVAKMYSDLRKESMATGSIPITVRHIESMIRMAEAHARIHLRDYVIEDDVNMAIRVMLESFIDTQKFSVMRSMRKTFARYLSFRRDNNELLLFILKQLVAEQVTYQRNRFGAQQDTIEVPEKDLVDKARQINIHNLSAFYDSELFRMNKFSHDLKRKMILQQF
DNA replication licensing factor MCM7 (Homo sapiens), sequence (P33993 whole entry): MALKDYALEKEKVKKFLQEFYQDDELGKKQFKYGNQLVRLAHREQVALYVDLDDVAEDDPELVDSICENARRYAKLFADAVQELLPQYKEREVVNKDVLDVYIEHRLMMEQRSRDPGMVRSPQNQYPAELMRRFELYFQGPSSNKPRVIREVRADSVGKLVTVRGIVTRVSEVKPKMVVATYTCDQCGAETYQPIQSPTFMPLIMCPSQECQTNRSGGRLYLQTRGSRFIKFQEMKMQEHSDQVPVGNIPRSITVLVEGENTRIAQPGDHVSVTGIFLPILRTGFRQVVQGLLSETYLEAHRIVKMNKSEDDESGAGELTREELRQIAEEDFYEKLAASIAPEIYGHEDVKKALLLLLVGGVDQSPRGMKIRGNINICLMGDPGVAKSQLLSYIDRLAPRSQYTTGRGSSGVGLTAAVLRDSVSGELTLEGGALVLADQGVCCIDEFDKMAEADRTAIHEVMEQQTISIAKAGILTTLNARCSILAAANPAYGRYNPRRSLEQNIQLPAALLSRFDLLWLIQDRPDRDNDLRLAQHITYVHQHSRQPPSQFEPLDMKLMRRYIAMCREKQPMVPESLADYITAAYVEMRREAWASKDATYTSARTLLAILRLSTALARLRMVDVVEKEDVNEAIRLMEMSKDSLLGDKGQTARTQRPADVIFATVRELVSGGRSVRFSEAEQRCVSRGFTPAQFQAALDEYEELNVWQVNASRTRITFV

Cc1oc2c(c1C(=O)NCCCn1ccnc1)C(=O)c1ccccc1C2=O
Activity [1]: 0.7
Activity [2]: 0.2
Activity [3]: Active
Activity (NCI-H1975 [4]): 18%
Activity [5]: Active
Activity [6]: Active
Activity [7]: inactive
Activity [8]: 0.8
selectivity ratio [9]: > 10
pIC50 (NCI-H1975 [10]): 7.15
Activity [11]: 0.4
inhibition in vivo at 4 mg/kg (NCI-H1975 [12]): 59%
Activity [13]: 0.8
Activity [14]: Active
Activity [15]: Active
Activity [16]: 0.6
Activity [17]: 0.5
Activity (NCI-H1975 [18]): Active
inhibition in vivo at 1 mg/kg (NCI-H1975 [19]): 44%
